Measurements published in patent US7501529B2, “7-Ethynyl-2,4,9-trithiaadamantane and related methods” (The University of Akron, priority 2003, dated 2009).

Legend:
[1] = comparison value, source not stated; cited from earlier work
[2] = Solubility in water / D2O, observed during 1H NMR experiments; type: physicochemical
Text: The formation of inclusion complex between 7-hydroxycarbonyl-2,4,9-trithiaadamantane and β-cyclodextrin was evident in the 1H NMR experiments. […] Thus, a 1:1 mixture of 7-hydroxycarbonyl-2,4,9-trithiaadamantane and β-cyclodextrin (3.5×10^−3 M) formed a clear solution in D2O in an NMR sampling tube. At the low concentration limit, this change in the solubility of 7-hydroxycarbonyl-2,4,9-trithiaadamantane in water is attributed to the molecular interactions between water insoluble 7-hydroxycarbonyl-2,4,9-trithiaadamantane and water soluble β-cyclodextrin. […] Similar phenomena in cyclodextrin inclusion complexes have been observed previously. Without being bound by theory, these spectral changes were attributed at least in part to the dynamic exchanges between uncomplexed species and the intimately included 7-hydroxycarbonyl-2,4,9-trithiaadamantane in β-cyclodextrin in aqueous solutions. […] The simultaneous observation of changes in the chemical shift of the β-cyclodextrin at H-3 and H-5 also indicated the binding interaction was dominated by the inclusion of the 7-hydroxycarbonyl-2,4,9-trithiaadamantane guest inside the host β-cyclodextrin cavity.

[3] = 1H NMR titration, stability constant of the inclusion complex (Benesi-Hildebrand); type: physicochemical
Procedure: The equilibrium constant of the formation of the inclusion complex provides a relative measurement of the thermodynamic driving force for the guest and host binding. NMR Titration was performed by measuring chemical shift changes as a function of the relative concentrations of the host and guest. The changes of the chemical shifts were measured for the H-3 and H-5 peaks of the host and Ha and Hb of the guest in the following scheme, which represents the inclusion complex formation of 7-hydroxycarbonyl-2,4,9-trithiaadamantane with β-cyclodextrin:
The data in Table 1 were also used to calculate the stability constant of the 7-hydroxycarbonyl-2,4,9-trithiaadamantane/β-cyclodextrin inclusion complex by applying the Benesi-Hildebrand equation having the formula: 1/Δδi=(1/KΔδc)(1/Hi)+1/Δδc where the Δδi represents the observed chemical shift difference between the free guest and complexed guest, Hi represents the total host concentration, and Δδc represents the guest chemical shift difference between a completely complexed state and completely free state. In order to use Benesi-Hildebrand equation, the host molecule must be present in excess. The stability constant was determined from simultaneous fits of three chemical shift data sets. The stability constant of 7-hydroxycarbonyl-2,4,9-trithiaadamantane/β-cyclodextrin in water was thus measured to be 1550 M^−1 (logK=3.19). […]

SMILES | stability constant K of the β-cyclodextrin inclusion complex (comparison) [1] | solubility in water ([2]; water, without β-cyclodextrin) | change of solubility in water with β-cyclodextrin present ([2]; β-cyclodextrin present, 1:1 mixture (3.5×10^−3 M) formed a clear solution in D2O) | association (stability) constant of the inclusion complex with β-cyclodextrin ([3]; 1:1 complex, in water (D2O), room temperature, 1H NMR titration) | logK of the stability constant of the β-cyclodextrin inclusion complex ([3]; in water)
O=C(O)C12CC3CC(CC(C3)C1)C2 [1-adamantane carboxylic acid] | 188 M⁻¹ |  |  |  | 
O=C(O)C12CC3SC(C1)SC(C2)S3 [7-hydroxycarbonyl-2,4,9-trithiaadamantane] |  | dissolves only slightly | increased visibly | 1550 M⁻¹ | 3.19
